Tests used:
[1] = Apparent permeability of compound across gastrointestinal tract mimic in PBS buffer incubated for 5 hrs by PAMPA assay based HPLC analysis; assay type: ADME
[2] = molecular target: Acetylcholinesterase (Homo sapiens, UniProt P22303)
Description: Inhibition of human acetylcholinesterase using acetylthiocholine iodide as substrate incubated for 15 mins by Ellman's method

[3] = Apparent permeability of compound across gastrointestinal tract mimic in PBS buffer as membrane retention incubated for 5 hrs by PAMPA assay based HPLC analysis; assay type: ADME

Sequence of Acetylcholinesterase (P22303 whole entry): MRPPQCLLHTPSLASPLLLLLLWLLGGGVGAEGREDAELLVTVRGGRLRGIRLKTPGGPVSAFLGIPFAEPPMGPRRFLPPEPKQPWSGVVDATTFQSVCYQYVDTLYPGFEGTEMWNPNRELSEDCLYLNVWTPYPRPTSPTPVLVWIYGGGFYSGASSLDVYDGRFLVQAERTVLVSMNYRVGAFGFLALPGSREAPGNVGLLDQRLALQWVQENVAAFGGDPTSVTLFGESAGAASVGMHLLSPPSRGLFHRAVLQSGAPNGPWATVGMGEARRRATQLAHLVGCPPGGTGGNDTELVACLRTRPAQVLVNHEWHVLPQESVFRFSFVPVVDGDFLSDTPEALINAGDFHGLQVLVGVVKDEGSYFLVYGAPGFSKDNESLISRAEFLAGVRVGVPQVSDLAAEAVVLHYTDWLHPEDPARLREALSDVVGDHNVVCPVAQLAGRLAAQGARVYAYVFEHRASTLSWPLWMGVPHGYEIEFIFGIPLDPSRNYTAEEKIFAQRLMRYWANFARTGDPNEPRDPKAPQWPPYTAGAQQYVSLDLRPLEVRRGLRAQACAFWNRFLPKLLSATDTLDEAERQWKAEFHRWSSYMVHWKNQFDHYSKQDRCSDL

Row | Structure (SMILES) | Papp at 5 h [1] [×10⁻⁶ cm/s] | IC50 [2] [µM] | Activity [3] [%]
1 | CC(=O)N1N=C(c2ccc3ccccc3c2)CC1c1ccc(-c2ccccc2)cc1 (centres undefined) | 4.43 | 0.068 | 56.9
2 | COc1ccc(OC)c(C2CC(c3ccc(-c4ccccc4)cc3)=NN2C(C)=O)c1 (centres undefined) | 6.94 | 1420 | 38.3
3 | CC(=O)N1N=C(c2ccc(-c3ccccc3)cc2)CC1c1ccc([N+](=O)[O-])cc1 (centres undefined) | 7.85 | 1560 | 32.6
4 | CC(=O)N1N=C(c2cccc3ccccc23)CC1c1ccc(-c2ccccc2)cc1 (centres undefined) | 5.47 | 1010 | 35.8
5 | CC(=O)N1N=C(c2ccc3c(c2)OCO3)CC1c1ccc(-c2ccccc2)cc1 (centres undefined) | 8.44 | 0.913 | 17
6 | CC(=O)N1N=C(c2ccc(C)cc2)CC1c1ccc(-c2ccccc2)cc1 (centres undefined) | 4.27 | 0.845 | 44.3
7 | COc1ccc(C2=NN(C(C)=O)C(c3ccc(-c4ccccc4)cc3)C2)c(OC)c1 (centres undefined) | 1 | 1130 | 18.4
8 | CC(=O)N1N=C(c2ccc(Br)cc2)CC1c1ccc(-c2ccccc2)cc1 (centres undefined) | 4.9 | 0.903 | 49
9 | COc1cc(C2=NN(C(C)=O)C(c3ccc(-c4ccccc4)cc3)C2)cc(OC)c1OC (centres undefined) | 7.89 | 1950 | 9.5
10 | CC(=O)N1N=C(c2ccc(-c3ccccc3)cc2)CC1c1ccc2c(c1)OCO2 (centres undefined) | 8.75 | 0.988 | 33.7
11 | CC(=O)N1N=C(c2ccc(-c3ccccc3)cc2)CC1c1cccc([N+](=O)[O-])c1 (centres undefined) | 9.42 | 1030 | 27.7
12 | CC(=O)N1N=C(c2ccc(-c3ccccc3)cc2)CC1c1ccccc1[N+](=O)[O-] (centres undefined) | 6.9 | 0.64 | 47.6
13 | COc1ccc(C2CC(c3ccc(-c4ccccc4)cc3)=NN2C(C)=O)cc1OC (centres undefined) | 9.02 | 1430 | 9.2
14 | COc1ccc(OC)c(C2=NN(C(C)=O)C(c3ccc(-c4ccccc4)cc3)C2)c1 (centres undefined) | 6.87 | 1700 | 36.2
15 | CC(=O)N1N=C(c2ccc(-c3ccccc3)cc2)CC1c1ccc2ccccc2c1 (centres undefined) | 3.36 | 0.799 | 59.7
16 | CC(=O)N1N=C(c2ccc(-c3ccccc3)cc2)CC1c1ccc(C(=O)O)cc1 (centres undefined) | 2.13 | 1540 | 15
17 | CC(=O)N1N=C(c2ccc(-c3ccccc3)cc2)CC1c1ccccc1 (centres undefined) | 9.15 | 1330 | 30.7
18 | CC(=O)N1N=C(c2ccccc2[N+](=O)[O-])CC1c1ccc(-c2ccccc2)cc1 (centres undefined) | 1.22 | 0.052 | 6.6
